Among the data in patent US20220402935A1, “HETEROCYCLIC COMPOUND” (FIMECS, INC., priority 2019, published 2022) are IC50, remaining binding and inhibition values, retold here.

Assay [1] has as its target T1, human XIAP_BIR3 domain purified protein (Homo sapiens, UniProt P98170).
T1 construct: purchased R & D
The assay can be described thus: XIAP binding inhibitory activity (HTRF, b-Smac ligand). To be noted: for IC50: second symbol of cell, read-out: XIAP binding inhibition IC50 value. The method, then: Human XIAP binding inhibitory activity was measured by the Homogeneous Time Resolved Fluorescence (HTRF) method with using commercially available human XIAP_BIR3 domain purified protein (R & D) and as a ligand a Smac N-terminal peptide (AVPIAQK (SEQ ID NO: 1)) (hereinafter referred to as “b-Smac”; Peptide Research Laboratories, Inc.) biotinylated at the C-terminus according to a conventional method.
The HTRF method will be described in detail below.
The test compound diluted with a reaction buffer (25 mM HEPES Buffer containing 100 mM NaCl, 0.1% BSA, and 0.1% triton X-100, pH 7.5) was added to a 384-well white shallow bottom plate (Greiner 784076) at 1 μL/well and flash centrifuged for 30 seconds. Subsequently, human XIAP_BIR3 domain purified protein was diluted with the reaction buffer to obtain a 90 nM sample diluent, and the resultant sample diluent was added to the above-mentioned white superficial plate at 4.5 μL/well and flash centrifuged for 30 seconds. Subsequently, b-Smac diluted to 90 nM with the reaction buffer was added to the above-mentioned white superficial plat at 4.5 μL/well and flash centrifuged for 30 seconds. A mixed solution of Anti-6 HIS-Cryptate (Eu^3+ Cryptate-conjugated mouse monoclonal antibody anti-6 Histidine; cisbio) and Streptavidin-XL^eat (Highgrade XL665-conjugated streptavidin; cisbio) both diluted 100-fold with HTRF detection buffer (cisbio) at a volume ratio of 1:1 was added to the above white superficial plate at 10 μL/well. After flash centrifuging the white shallow bottom plate for 30 seconds, the white shallow bottom plate was left at room temperature for 4 hours or more in the dark. The white superficial plate after being left was subjected to fluorescence intensity measurement (excitation wavelength: 320 nm, fluorescence wavelength: 665 nm and 615 nm) by EnVision (Perkin Elmer). The binding inhibition rate (%) was calculated based on the HTRF ratio in the presence of the test compound to the HTRF ratio in the absence of the test compound (fluorescence intensity at 665 nm/fluorescence intensity at 615 nm).
The XIAP binding inhibition rate (%) of test compounds was evaluated.
(Time-resolved FRET reads energy transfer from a long-lived donor to a nearby acceptor.)

The target of another assay is T2, IRAK-M (Homo sapiens, UniProt Q9Y616).
T2 sequence (Q9Y616 1-596): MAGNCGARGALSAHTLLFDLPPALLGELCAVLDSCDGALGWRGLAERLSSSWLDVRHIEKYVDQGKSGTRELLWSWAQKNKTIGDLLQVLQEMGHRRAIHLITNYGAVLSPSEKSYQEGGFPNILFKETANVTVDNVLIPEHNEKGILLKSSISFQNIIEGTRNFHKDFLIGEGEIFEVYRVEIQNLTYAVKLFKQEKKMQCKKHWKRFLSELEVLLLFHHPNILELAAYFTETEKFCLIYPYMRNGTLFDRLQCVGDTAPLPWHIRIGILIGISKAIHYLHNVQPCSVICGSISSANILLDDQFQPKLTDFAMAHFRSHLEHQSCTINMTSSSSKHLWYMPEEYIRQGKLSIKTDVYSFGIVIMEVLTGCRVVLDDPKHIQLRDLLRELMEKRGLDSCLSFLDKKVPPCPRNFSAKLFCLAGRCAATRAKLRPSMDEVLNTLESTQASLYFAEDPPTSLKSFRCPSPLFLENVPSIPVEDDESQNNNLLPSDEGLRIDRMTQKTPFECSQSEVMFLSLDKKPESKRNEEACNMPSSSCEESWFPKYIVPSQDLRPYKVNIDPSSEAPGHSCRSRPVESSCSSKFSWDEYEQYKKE
The assay is described as follows: IRAK-M binding inhibitory activity (KINOMEscan active site-dependent competitive assay). More on the design: purchased Eurofins Discover X. As to conditions: for IC50: second symbol of cell, read-out: IRAK-M binding inhibition IC50 value; for remaining binding at 1 µM: concentration of the test compound 1 μM, first symbol of cell, read-out: IRAK-M binding inhibition activity % Ctrl. In a few lines: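 Readout given as % Ctrl, with DMSO as 100% and a control compound as 0%, scaling the test compound signal between them. Binding to human IRAK-M was assessed by KINOMEscan competition at the kinase active site.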

T1 sequence (P98170 252-356 limits assumed): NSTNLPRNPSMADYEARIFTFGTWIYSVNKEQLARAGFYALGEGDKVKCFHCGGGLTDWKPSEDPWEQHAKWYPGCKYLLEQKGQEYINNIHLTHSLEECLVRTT

For orientation: IC50 means the concentration that inhibits the measured activity by half. With `CN[C@@H](C)C(=O)N[C@H](C(=O)N1CCN(C(=O)c2c(C(=O)NCCOCCOCCOc3ccc(S(=O)(=O)N4CCC(Oc5ncnc6ccsc56)CC4)cc3)c3ccc(OC)cc3n2C)CC1)C1CCCCC1` [Example 2, 2-(4-((S)-2-Cyclohexyl-2-((S)-2-(methylamino)propanamido)acetyl)piperazine-1-carbonyl)-6-methoxy-1-methyl-N-(2-(2-(2-(4-((4-(thieno[3,2-d]pyrimidin-4-yloxy)piperidin-1-yl)sulfonyl)phenoxy)ethoxy)ethoxy)ethyl)-1H-indole-3-carboxamide], the IC50 was in the range of 300 to 3000 nM in assay [1] and 300 to 1000 nM on IRAK-M.

For `CN[C@@H](C)C(=O)N[C@H](C(=O)N1CCN(C(=O)c2c(C(=O)N(C)CCOCCOCCOc3cc(CN4CCC(Oc5ccnc6ccsc56)CC4)on3)c3cc(F)ccc3n2C)CC1)C1CCCCC1` [Example 3, 2-(4-((S)-2-cyclohexyl-2-((S)-2-(methylamino)propanamido)acetyl)piperazine-1-carbonyl)-5-fluoro-N,1-dimethyl-N-(2-(2-(2-((5-((4-(thieno[3,2-b]pyridin-7-yloxy)piperidin-1-yl)methyl)isoxazol-3-yl)oxy)ethoxy)ethoxy)ethyl)-1H-indole-3-carboxamide], the 50% inhibitory concentration (IC50) in assay [1] lay within 300 to 3000 nM; on IRAK-M, 100 to 300 nM.

As for `CN[C@@H](C)C(=O)N[C@H](C(=O)N1CCN(C(=O)c2c(C(=O)NCCOCCOc3cc(CN4CCC(Oc5ccnc6ccsc56)CC4)on3)c3cc(F)c(F)cc3n2C)CC1)C1CCCCC1` [Example 4, 2-(4-((S)-2-cyclohexyl-2-((S)-2-(methylamino)propanamido)acetyl)piperazine-1-carbonyl)-5,6-difluoro-1-methyl-N-(2-(2-((5-((4-(thieno[3,2-b]pyridin-7-yloxy)piperidin-1-yl)methyl)isoxazol-3-yl)oxy)ethoxy)ethyl)-1H-indole-3-carboxamide], the IC50 in assay [1] lay in the range of 300 to 3000 nM; at IRAK-M it was 300 to 1000 nM.

`CN[C@@H](C)C(=O)N[C@H](C(=O)N1CCN(C(=O)c2c(C(=O)NCCOCCOCCOc3cc(CN4CCC(Oc5ccnc6ccsc56)CC4)on3)c3cc(F)c(F)cc3n2C)CC1)C1CCCCC1` [Example 5, 2-(4-((S)-2-cyclohexyl-2-((S)-2-(methylamino)propanamido)acetyl)piperazine-1-carbonyl)-5,6-difluoro-1-methyl-N-(2-(2-(2-((5-((4-(thieno[3,2-b]pyridin-7-yloxy)piperidin-1-yl)methyl)isoxazol-3-yl)oxy)ethoxy)ethoxy)ethyl)-1H-indole-3-carboxamide]: the IC50 in assay [1] fell in the range of 300 to 3000 nM; on IRAK-M, 300 to 1000 nM.

On to `CN[C@@H](C)C(=O)N[C@H](C(=O)N1CCN(C(=O)c2c(C(=O)NCCOCCOCCOCCOc3cc(CN4CCC(Oc5ccnc6ccsc56)CC4)on3)c3cc(F)c(F)cc3n2C)CC1)C1CCCCC1` [Example 6, 2-(4-((S)-2-cyclohexyl-2-((S)-2-(methylamino)propanamido)acetyl)piperazine-1-carbonyl)-5,6-difluoro-1-methyl-N-(2-(2-(2-(2-((5-((4-(thieno[3,2-b]pyridin-7-yloxy)piperidin-1-yl)methyl)isoxazol-3-yl)oxy)ethoxy)ethoxy)ethoxy)ethyl)-1H-indole-3-carboxamide], for which the results for the concentration for half-maximal inhibition (IC50) (in assay [1]; on IRAK-M) were 300 to 3000 nM and 100 to 300 nM, respectively.

`CN[C@@H](C)C(=O)N[C@H](C(=O)N1CCN(C(=O)c2c(C(=O)NCCOCCOCCOc3cc(CN4CCC(Oc5ccnc6ccsc56)CC4)n(C)n3)c3cc(F)c(F)cc3n2C)CC1)C1CCCCC1` [Example 7, 2-(4-((S)-2-cyclohexyl-2-((S)-2-(methylamino)propanamido)acetyl)piperazine-1-carbonyl)-5,6-difluoro-1-methyl-N-(2-(2-(2-((1-methyl-5-((4-(thieno[3,2-b]pyridin-7-yloxy)piperidin-1-yl)methyl)-1H-pyrazol-3-yl)oxy)ethoxy)ethoxy)ethyl)-1H-indole-3-carboxamide]: in assay [1], the IC50 is 300 to 3000 nM. The remaining binding at 1 µM at IRAK-M lay within 25 to 50%.

Take `CN[C@@H](C)C(=O)N[C@H](C(=O)N1CCN(C(=O)c2c(C(=O)NCCOCCOCCOc3cc(CN4CCC(Oc5ccnc6cc(C)sc56)CC4)on3)c3cc(F)c(F)cc3n2C)CC1)C1CCCCC1` [Example 8, 2-(4-((S)-2-cyclohexyl-2-((S)-2-(methylamino)propanamido)acetyl)piperazine-1-carbonyl)-5,6-difluoro-1-methyl-N-(2-(2-(2-((5-((4-((2-methylthieno[3,2-b]pyridin-7-yl)oxy)piperidin-1-yl)methyl)isoxazol-3-yl)oxy)ethoxy)ethoxy)ethyl)-1H-indole-3-carboxamide]: the IC50 in assay [1] is 300 to 3000 nM; on IRAK-M, 30 to 100 nM.

The inhibition is the relative decrease from the control value, in per cent. On to `CN[C@@H](C)C(=O)N[C@H](C(=O)N1CCN(C(=O)c2cc3cc(F)c(F)cc3n2CCOCCOCCOc2cc(CN3CCC(Oc4ccnc5ccsc45)CC3)on2)CC1)C1CCCCC1` [Example 30, (S)-N-((S)-1-cyclohexyl-2-(4-(5,6-difluoro-1-(2-(2-(2-((5-((4-(thieno[3,2-b]pyridin-7-yloxy)piperidin-1-yl)methyl)isoxazol-3-yl)oxy)ethoxy)ethoxy)ethyl)-1H-indole-2-carbonyl)piperazin-1-yl)-2-oxoethyl)-2-(methylamino)propanamide], for which, in assay [1] (concentration of the test compound 3 μM, first symbol of cell, read-out: XIAP binding inhibition rate), the inhibition at 3 µM was above 25%.

In the case of `CN[C@@H](C)C(=O)N[C@H](C(=O)N1CCN(C(=O)c2cc3cc(F)ccc3n2CC(=O)N2C[C@@H](Oc3cc(CN4CCC(Oc5ccnc6ccsc56)CC4)on3)C[C@H]2CO)[C@@H](C)C1)C1CCCCC1` [Example 43, (S)-N-((S)-1-cyclohexyl-2-((S)-4-(5-fluoro-1-(2-((2S,4S)-2-(hydroxymethyl)-4-((5-((4-(thieno[3,2-b]pyridin-7-yloxy)piperidin-1-yl)methyl)isoxazol-3-yl)oxy)pyrrolidin-1-yl)-2-oxoethyl)-1H-indole-2-carbonyl)-3-methylpiperazin-1-yl)-2-oxoethyl)-2-(methylamino)propanamide], the IC50 in assay [1] lay within 3000 to 30000 nM.

With `CN[C@@H](C)C(=O)N[C@H](C(=O)N1CCN(C(=O)c2cc3cc(F)ccc3n2CC(=O)N(C)CCOc2cc(CN3CCC(Oc4ccnc5ccsc45)CC3)on2)[C@@H](C)C1)C1CCCCC1` [Example 50, (S)-N-((S)-1-cyclohexyl-2-((S)-4-(5-fluoro-1-(2-(methyl(2-((5-((4-(thieno[3,2-b]pyridin-7-yloxy)piperidin-1-yl)methyl)isoxazol-3-yl)oxy)ethyl)amino)-2-oxoethyl)-1H-indole-2-carbonyl)-3-methylpiperazin-1-yl)-2-oxoethyl)-2-(methylamino)propanamide], the IC50 in assay [1] was in the range of 3000 to 30000 nM.

As to `COCCOc1cc(CN2CCC(Oc3ccnc4ccsc34)CC2)on1` [Ref. example 85, 3-(2-methoxyethoxy)-5-((4-(thieno[3,2-b]pyridin-7-yloxy)piperidin-1-yl)methyl)isoxazole], the IC50 at IRAK-M lay in the range of 100 to 300 nM.

Consider `C=CCOc1cc(CN2CCC(Oc3ccnc4cc(C#N)sc34)CC2)on1` [Ref. example 86, 7-((1-((3-(allyloxy)isoxazol-5-yl)methyl)piperidin-4-yl)oxy)thieno[3,2-b]pyridine-2-carbonitrile], for which, at IRAK-M, the IC50 was 100 to 300 nM.

On to `Cc1cc2nccc(OC3CCN(Cc4cc(O)no4)CC3)c2s1` [Ref. example 87, 5-((4-((2-methylthieno[3,2-b]pyridin-7-yl)oxy)piperidin-1-yl)methyl)isoxazol-3-ol], for which the remaining binding at 1 µM on IRAK-M is 25 to 50%.

Consider `Cc1cc2nccc(OC3CCN(C(C)c4cc(O)no4)CC3)c2s1` (stereo not drawn) [Ref. example 88, 5-(1-(4-((2-methylthieno[3,2-b]pyridin-7-yl)oxy)piperidin-1-yl)ethyl)isoxazol-3-ol], for which the remaining binding at 1 µM on IRAK-M fell in the range of 25 to 50%.
